Laboratory results taken from patent US20100004222A1, “Amide Derivatives as Ion-Channel Ligands and Pharmaceutical Compositions and Methods of Using the Same” (Renovis, Inc., priority 2006, published 2010).
“Also recorded” adds a separate entry of the source.

Columns and labels:
VR1 [1] = target: T1, VR1 (Homo sapiens, UniProt Q8NER1); assay: Calcium uptake assay, capsaicin agonist (high throughput calcium imaging); assay type: cell-based; design: expressed in transfected cells; host or cells: T-REx HEK 293 (Invitrogen), pcDNA5/TO vector; conditions: 3 nM; FIGS. 2-6
Target sequence in this assay (Q8NER1 whole entry): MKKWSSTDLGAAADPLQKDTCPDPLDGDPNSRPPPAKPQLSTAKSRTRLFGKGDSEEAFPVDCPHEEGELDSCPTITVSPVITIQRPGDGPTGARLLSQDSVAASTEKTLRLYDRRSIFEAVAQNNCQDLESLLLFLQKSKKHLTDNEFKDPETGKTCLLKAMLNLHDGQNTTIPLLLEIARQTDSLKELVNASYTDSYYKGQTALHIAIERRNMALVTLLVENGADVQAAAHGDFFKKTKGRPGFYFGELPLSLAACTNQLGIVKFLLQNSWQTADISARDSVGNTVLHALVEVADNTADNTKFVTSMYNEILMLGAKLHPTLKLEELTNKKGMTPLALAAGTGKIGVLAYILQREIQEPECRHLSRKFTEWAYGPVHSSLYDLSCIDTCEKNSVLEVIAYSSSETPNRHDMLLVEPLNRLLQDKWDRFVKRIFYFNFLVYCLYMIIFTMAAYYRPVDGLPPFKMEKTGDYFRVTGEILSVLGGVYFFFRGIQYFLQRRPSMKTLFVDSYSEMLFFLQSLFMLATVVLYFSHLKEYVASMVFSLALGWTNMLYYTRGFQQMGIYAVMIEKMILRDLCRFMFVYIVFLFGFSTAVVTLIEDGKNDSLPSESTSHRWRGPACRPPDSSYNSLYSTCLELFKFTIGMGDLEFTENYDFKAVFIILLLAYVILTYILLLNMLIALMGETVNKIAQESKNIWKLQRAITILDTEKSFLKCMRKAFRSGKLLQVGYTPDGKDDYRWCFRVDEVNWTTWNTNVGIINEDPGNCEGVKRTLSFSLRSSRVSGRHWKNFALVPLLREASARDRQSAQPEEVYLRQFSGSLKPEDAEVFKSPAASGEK

[2] = Pharmacokinetic evaluation following intravenous and oral administration in rats; assay type: in vivo; conditions: male, Sprague-Dawley, plasma, rat; for bioavailability: AUCinf (PO)/AUCinf (IV), dose normalized, PO 5 mg/kg, read-out: Oral Bioavailability F (%); for clearance: non-compartmental analysis, read-out: In vivo Clearance (converted)
Description: Male Sprague-Dawley rats are acclimatized for at least 24 hours prior to experiment initiation. During acclimation period, all animals receive food and water ad libitum. However, food but not water is removed from the animal's cages at least 12 hours before initiation of the experiment. During the first 3 hours of experimentation, the animals receive only water ad libitum. At least three animal each are tested for intravenous and oral dosage. For intravenous formulation, compounds were dissolved (0.25 to 1 mg/mL) in a mixture of 3% dimethyl sulfoxide, 40% PEG 400 and the rest percentage of 40% Captisol in water (w/v). For oral formulation, compounds of this invention are dissolved (2 mg/mL) in a mixture of 5% of 10% Tween 80 in water (v/v) and 95% of 0.5% methyl cellulose in water (w/v). The animals are weighed before dosing. The determined body weight is used to calculate the dose volume for each animal.
Dose volume(mL/kg)=1 mg/kg/formulation concentration(mg/mL)
In instances where the formulation concentrations were less than 0.5 mg/mL, the dosing volume is about 2 mL/kg. PO rats are typically dosed through oral gavage at 2.5 mL/kg to achieve a dose level of 5 mg/kg. For IV dosing, blood samples are collected (using a pre-heparinized syringe) via the jugular vein catheter at 2, 5, 15, 30, 60, 120, 180, 300, 480, and 1440 minutes post dosing. For PO dosing, blood samples are collected (using a pre-heparinized syringe) via the jugular vein catheter before dosing and at 5, 15, 30, 60, 120, 180, 300, 480, and 1440 minutes post dosing. About 250 uL of blood is obtained at each time point from the animal. Equal volumes of 0.9% normal saline are replaced to prevent dehydration. The whole blood samples are maintained on ice until centrifugation. Blood samples are then centrifuged at 14,000 rpm for 10 minutes at 4° C. and the upper plasma layer transferred into a clean vial and stored at −80° C. The resulting plasma samples are then analyzed by liquid chromatography-tandem mass spectrometry. Following the measurement of plasma samples and dosing solutions, plasma concentration-time curve is plotted. Plasma exposure is calculated as the area under the concentration-time curve extrapolated to time infinite (AUCinf). The AUCinf is averaged and the oral bioavailability (% F) for individual animal is calculated as:
AUCinf (PO)/AUCinf (IV), normalized to their respective dose levels. The % F is reported as the mean % F of all animals dosed orally with the compound of the invention at the specified level (Table 6).
In vivo clearance in the rat was calculated by conducting a non-compartmental analysis of the pharmacokinetic profile using WinNonlin software.

VR1 receptor = assay: Calcium imaging assay in DRG neurons (capsaicin); assay type: cell-based; conditions: 3 nM, FIG. 1
Description: Therefore the functional activity of compounds at the VR1 receptor may be determined by measuring changes in intracellular calcium levels in neurons such as the dorsal root ganglion. […] Prior to assay, cells were loaded with 5 μg/ml Fura2 in normal saline solution at 37° C. for 40 minutes. Cells were then washed with normal saline to remove dye before commencement of the experiment. The plated neurons were transferred into a chamber on the stage of a Nikon eclipse TE300 microscope after which neurons were allowed to attain a stable fluorescence for about 10 minutes before beginning the experiment. The assay consists of two stages, a pretreatment phase followed by a treatment phase. First, a solution of the test compound was added from a multivalve perfusion system to the cells for 1 minute (pretreatment). […] Fura2 was excited at […] to indicate relative calcium ion concentration. Changes in wavelength measurements were made throughout the course of the experiment. The fluorescence ratio was calculated by dividing fluorescence measured at 340 nm by that at 380 nM. Data were collected using Intelligent Imaging's Slidebook software.

[3] = test system: Dorsal root ganglion (DRG) neurons; assay: Whole-cell patch clamp electrophysiology; assay type: cell-based; conditions: Rattus norvegicus, DRG neuron, read-out: % inhibition of capsaicin induced current
Description: Dorsal root ganglion (DRG) neurons were recovered from either neonatal or adult rats and plated onto poly-D-lysine coated glass coverslips. The plated neurons were transferred into a chamber to allow drug solutions to be added to the cells using a computer-controlled solenoid-valve based perfusion system. The cells were imaged using standard DIC optics. Cells were patched using finely-pulled glass electrodes. Voltage-clamp electrophysiology experiments were carried out using an Axon Instruments Multiclamp amplified controlled by pCLAMP8 software.

VR1 [4] = target: T1, VR1; assay: Acid stimulation assay (FDSS 6000); assay type: cell-based; conditions: final assay buffer pH5.8, 15 min pre-incubation
Description: The Acid-induced changes in the intracellular calcium concentration were monitored using FDSS 6000 (Hamamatsu Photonics, Japan), a fluorometric imaging system. The cell suspension in resting buffer (HBSS supplemented with 10 mM HEPES, pH 7.4) was pre-incubated with varying concentrations of the test compounds or resting buffer (buffer control) for 15 minutes at room temperature under dark conditions. The cells were automatically added the stimulating solution (HBSS supplemented with MES, final assay buffer pH5.8) by the FDSS 6000.
Target sequence in this assay (Q8NER1 whole entry, species assumed): as the sequence (Q8NER1 whole entry) above

[5] = Half-life in human liver microsomes (HLM); assay type: in vitro ADME; conditions: pH 7.4, 1 μM compound, 0.78 mg/mL HLM, 37° C.
Description: Test compounds (1 μM) are incubated with 3.3 mM MgCl2 and 0.78 mg/mL HLM (HL101) in 100 mM potassium phosphate buffer (pH 7.4) at 37° C. on the 96-deep well plate. The reaction mixture is split into two groups, a non-P450 and a P450 group. NADPH is only added to the reaction mixture of the P450 group. An aliquot of samples of P450 group is collected at 0, 10, 30, and 60 min time point, where 0 min time point indicated the time when NADPH is added into the reaction mixture of P450 group. An aliquot of samples of non-P450 group is collected at −10 and 65 min time point. Collected aliquots are extracted with acetonitrile solution containing an internal standard. The precipitated protein is spun down in centrifuge (2000 rpm, 15 min). The compound concentration in supernatant is measured by LC/MS/MS system.
The half-life value is obtained by plotting the natural logarithm of the peak area ratio of compounds/internal standard versus time. The slope of the line of best fit through the points yields the rate of metabolism (k). This is converted to a half-life value using following equations: […]

VR1 [6] = target: T1, VR1; assay: Calcium uptake assay, low pH (proton) agonist; assay type: cell-based; design: expressed in transfected cells; host or cells: T-REx HEK 293 (Invitrogen), pcDNA5/TO vector; conditions: HEK293; 0.3 μM compound; low pH (protons) as agonist; HEK 293 cells expressing hVR1; read-out: Low pH % Inhib. @ 0.3 μM
Target sequence in this assay (Q8NER1 whole entry): as above

inhibition of the Capsaicin induced intracellular calcium response (VR1 [1]) | bioavailability [2] | clearance [2] | IC50 (VR1 [4]) | half-life at 1 μM [5] | inhibition at 0.3 µM (VR1 [6]) | SMILES | other results
 |  | 1.52 mL/min/kg |  |  |  | Cc1cc(/C=C/C(F)(F)F)ccc1C(=O)Nc1ccc2sc(CO)nc2c1 [Compound 225] | inhibition of the Capsaicin induced intracellular calcium response (VR1 receptor): reduced; also recorded: significant inhibition
 | 11% | 7.17 mL/min/kg | 20 nM | 48.6 min | 105% | Cc1nc2cc(NC(=O)c3ccc(/C=C/C(F)(F)F)cc3C)cnc2s1 [Compound 412, (E)-2-methyl-N-(2-methylthiazolo[5,4-b]pyridin-6-yl)-4-(3,3,3-trifluoroprop-1-enyl)benzamide] | 
 | > 100% | 3.83 mL/min/kg | 4 nM | 193 min | 110% | Cc1cc(/C=C/C(F)(F)F)ccc1C(=O)Nc1cnc2sc(CO)nc2c1 [Compound 413, (E)-N-(2-(hydroxymethyl)thiazolo[5,4-b]pyridin-6-yl)-2-methyl-4-(3,3,3-trifluoroprop-1-enyl)benzamide] | 

The next lines start with the compound.

SMILES | inhibition of the Capsaicin induced intracellular calcium response (VR1 [1]) | bioavailability [2] | clearance [2] | IC50 (VR1 [4]) | half-life at 1 μM [5] | inhibition at 0.3 µM (VR1 [6]) | other results
O=C(Nc1cccc2cnccc12)c1ccc(C#CC(F)(F)F)cc1 [Compound 45] | significant inhibition |  |  |  |  |  | 
C/C(=C\C(F)(F)F)c1ccc(C(=O)Nc2ccc3c(c2)OCCN3)cc1 [Compound 96] | significant inhibition |  |  |  |  |  | 
Cc1cc(C#CC(C)(C)C)ccc1C(=O)Nc1ccc2c(c1)OCC(CO)N2 (stereo not drawn) [Compound 167] | significant inhibition |  |  |  |  |  | 
Cc1cc(/C=C/C(F)(F)F)ccc1C(=O)Nc1cnc2ccccc2c1 [Compound 187, 2-Methyl-N-quinolin-3-yl-4-((E)-3,3,3-trifluoro-propenyl)-benzamide] | significant inhibition | 43% | 1.83 mL/min/kg |  |  |  | 
Cc1cc(/C=C/C(F)(F)F)ccc1C(=O)Nc1cnc2c(c1)OCC(CO)N2 (stereo not drawn) [Compound 233] | significant inhibition | 54% | 33.3 mL/min/kg |  |  |  | 
COc1cc(NC(=O)c2ccc(/C=C/C(C)C)cc2)cc(C(F)(F)F)c1 [Compound 240] |  |  |  |  |  |  | inhibition at 0.1 µM [3]: 50%
Cc1cc(/C=C/C(F)(F)F)ccc1C(=O)Nc1cnc2scnc2c1 [Compound 415, (E)-2-methyl-N-(thiazolo[5,4-b]pyridin-6-yl)-4-(3,3,3-trifluoroprop-1-enyl)benzamide] |  | 45% | 0.833 mL/min/kg | 8 nM | 289 min | 130% | 
